This experiment has as its system HeLa Cells. Briefly: HeLa GI50 determination (SRB growth inhibition). It counts as cell-based. As to conditions: 48 h; human cervical carcinoma cell line HeLa S-3; 2 days of treatment; sulforhodamine B staining. As for the experimental part: A. HeLa GI50 Determinations
Growth inhibition (GI50) values were measured on the human cervical carcinoma cell line, HeLa S-3, which were selected for growth on plastic. The HeLa cell assay was based on the description of Skehan et al., J. Natl. Cancer Inst., 82:1107-12 (1990), which is hereby incorporated by reference in its entirety. HeLa cells were plated at 2×10^4 cells/well in 96 well plates. One day later, a control plate was fixed by the addition of TCA to 5%. After five rinses with tap water, the plate was air-dried and stored at 4° C. Test compounds were added to the remaining plates at 10-fold dilutions. Two days later, all plates were fixed as described above. Cells were then stained by the addition of 100 μL per well of 0.4% sulforhodamine B (SRB) in 1% acetic acid for 30 min at 4° C. Wells were then quickly rinsed 5× with 1% acetic acid and allowed to air dry. The SRB was then solubilized by the addition of 100 μL per well of unbuffered 10 mM Tris base. Dye was quantified by measuring absorbance at 490 nm on a Molecular Devices microplate reader. Growth inhibition was calculated according to the following equation: GI=100×(T−T0)/(C−T0), where the optical density (OD) of the test well after 2 days of treatment was T, the OD of the wells in the control plate on day 0 was T0 and C was the OD of untreated wells. […]
(The SRB assay estimates cell density from bound dye.)

This passage reports GI50 results from patent publication US20080125451A1, “VINORELBINE DERIVATIVES” (AMR TECHNOLOGY, INC., priority 2006, published 2008).

By GI50 is commonly meant the concentration at which growth is held to half of that of the control. Lower therefore signals greater sensitivity of the cells. Molecule `CCc1ccc2[nH]c3c(c2c1)CN1CC(C(C)(F)F)C[C@@H](C1)C[C@]3(C(=O)OC)c1cc2c(cc1OC)N(C)[C@H]1[C@@](O)(C(=O)OC)[C@H](OC(C)=O)[C@]3(CC)C=CCN4CC[C@]21[C@@H]43` (some centres unmarked) [Example 3, 11′-Ethylvinflunine] gave a GI50 of 170 nM.
The molecule `CC[C@]12C=CCN3CC[C@@]4(c5cc([C@@]6(C(=O)OC)C[C@H]7CC(C(C)(F)F)CN(Cc8c6[nH]c6ccc(SC)cc86)C7)c(OC)cc5N(C)[C@H]4[C@@](O)(C(=O)OC)[C@@H]1OC(C)=O)[C@@H]32` (some centres unmarked) [Example 12, 11′-(Methylsulfanyl)vinflunine] had a GI50 of 6.93 nM.
